Series [1] is described as follows: Cytotoxicity in the JEV cell culture system. The conditions noted are these: hamster.
The subject of series [2] is HIV-1 wild-type reference strain NL4-3. As to the kind of experiment: HIV-1 phenotypic assay, MT-2 cells then TZM-bl cells, luciferase. The conditions noted are these: Human immunodeficiency virus 1, NL43; first cycle in MT-2 cells, additional round in TZM-bl cells. Format: cell-based.
A further series concerns HIV (PBMC). The series can be described thus: HIV infectious cell culture system in PBMC, HIV-1 RNA in supernatant. The conditions noted are these: Human immunodeficiency virus 1, PBMC, 72 h, read-out: EC50 HIV (PBMC) 72 h.
The test system of another series is PRRSV. The series can be described thus: PRRSV infectious cell culture system, plaque formation assay in MARC-145 cells. Format: cell-based. The conditions noted are these: Porcine reproductive and respiratory syndrome virus, MARC145; viral titre by plaque formation assay in MARC-145 cells. As to the method:
According to the requirement of different experiments, MARC-145 cells were either infected with PRRSV at MOIs of 0.1, 1 or 10, or mock infected with phosphate-buffered saline (PBS). After 1 h incubation at 37° C., unbounded viruses were removed by washing thrice with PBS and cultured in DMEM supplemented with 8% FBS at 37° C. for various lengths of time. For the autophagy induction and inhibition experiments, MARC-145 cells were pretreated with varying concentrations of rapamycin or 3-MA for 4 h before viral infection. MARC-145 cells were then infected with PRRSV at MOI of 1. After 1 h incubation at 37° C., unbounded viruses were removed by washing thrice with PBS and cultured in DMEM supplemented with 2% FBS containing varying concentrations of compound, 3-MA or the corresponding amount of dimethyl sulfoxide (DMSO, control) at 37° C. for 24 h.

The test system of the next series is JEV strain (NJ2008). The series can be described thus: JEV infectious cell culture system, plaque formation assay in BHK-21 cells. The conditions noted are these: Japanese encephalitis virus, BHK-21, read-out: JEV EC50.
The next series addresses DDX3 Helicase (Homo sapiens, UniProt O00571). The conditions noted are these: read-out: ID50 (μM) against DDX3 Helicase; n.a. = compound not active.
The nature of series [3]: Cytotoxicity in PBMC, CellTiter 96 MTS viability assay. The conditions noted are these: human, human primary PBMCs. Format: cell-based.
For series [4], the system named is human liver microsome (HLM). As to the kind of experiment: Microsomal Stability Assay. The conditions noted are these: human liver microsomes, 37 °C, 60 min, compound 50 μM; percentage of not metabolized compound.

Chain of DDX3 Helicase (O00571 whole entry): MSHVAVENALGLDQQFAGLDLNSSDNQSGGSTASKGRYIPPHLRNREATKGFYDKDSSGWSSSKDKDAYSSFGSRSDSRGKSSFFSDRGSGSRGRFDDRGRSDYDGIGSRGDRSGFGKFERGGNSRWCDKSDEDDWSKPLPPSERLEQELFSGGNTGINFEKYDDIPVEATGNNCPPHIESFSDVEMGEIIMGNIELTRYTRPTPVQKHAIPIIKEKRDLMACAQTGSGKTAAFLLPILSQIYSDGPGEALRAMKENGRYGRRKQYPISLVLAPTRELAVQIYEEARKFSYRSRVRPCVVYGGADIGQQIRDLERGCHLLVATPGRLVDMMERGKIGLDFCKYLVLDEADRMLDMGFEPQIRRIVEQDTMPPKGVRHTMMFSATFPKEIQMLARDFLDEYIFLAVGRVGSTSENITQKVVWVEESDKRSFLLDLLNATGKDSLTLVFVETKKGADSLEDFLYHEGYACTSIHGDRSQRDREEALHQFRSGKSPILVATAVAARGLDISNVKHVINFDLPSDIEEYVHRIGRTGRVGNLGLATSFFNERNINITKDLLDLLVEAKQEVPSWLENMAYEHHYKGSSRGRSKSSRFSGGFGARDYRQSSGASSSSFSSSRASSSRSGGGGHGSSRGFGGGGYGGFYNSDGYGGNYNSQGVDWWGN

`CCCCc1cn(-c2cccc(S(=O)(=O)Nc3ccccc3C(F)(F)F)c2)nn1` [Compound 64d, 3-(4-butyl-1H-1,2,3-triazol-1-yl)-N-(2-(trifluoromethyl)phenyl)benzenesulfonamide]: the CC50 in series [1] is > 50 µM. The EC50 amounted to 12.7 µM in series [2], 31 µM in the series on HIV (PBMC), 30 µM in the series with PRRSV and 6.7 µM in the series with JEV strain (NJ2008). For the same compound, on DDX3 Helicase, the IC50 turned out to be 0.4 µM. The compound also had a CC50 at 24 h in series [3] (24 h) of 2130 µM. The compound further displayed a 50% cytotoxic concentration (CC50) at 48 h in series [3] (48 h) of 332 µM. Further, the CC50 at 72 h in series [3] (72 h) worked out at 198 µM. The “Metabolic stability (Sability %)” value in series [4] stood at 99%.

Values taken from patent US10941121B2 (AZIENDA OSPEDALIERA UNIVERSITARIA SENESE, priority 2015, dated 2021).
